From patent US20260022142A1, “MACROCYCLIC IMMUNOMODULATORS” (Bristol-Myers Squibb Company, priority 2022, published 2026)
Bridge positions count the residues as written; N and C are the ends. Square brackets hold non-standard residues; d marks the D form. Peptide text beside a SMILES is read from it. * marks the point of attachment. ξ: configuration not given here. Phe(4-CONH2) = NC(=O)c1ccc(C[C@H](N)C(=O)O)cc1; Bip = N[C@@H](Cc1ccc(-c2ccccc2)cc1)C(=O)O; Phe(3-Me) = Cc1cccc(C[C@H](N)C(=O)O)c1; Val(3-OH) = CC(C)(O)[C@H](N)C(=O)O; Cha = N[C@@H](CC1CCCCC1)C(=O)O; Thr(3ξ) = CC(O)[C@H](N)C(=O)O; Carboxymethyl = O=C(O)C*; Orn = NCCC[C@H](N)C(=O)O; Aun = NCCCCCCCCCCC(=O)O; Dab = NCC[C@H](N)C(=O)O; Dap = NC[C@H](N)C(=O)O; AEEA = NCCOCCOCC(=O)O; Piv = CC(C)(C)C(=O)*

Biological target: T1, PD-1/PD-L1 interaction (PE-labeled human PD-L1-Ig binding to Jurkat cell line over-expressing human PD-1) (Homo sapiens, UniProt Q15116)
T1 construct: expressed in transfected cells; host or cells: Jurkat
Assay: Jurkat-PD-1 Cell Binding High-Content Screening Assay (CBA)
Type: cell-based
Details: Jurkat cell line over-expressing human PD-1; PE-labeled PD-L1-Ig 20 nM final; read-out: Jurkat hPD1-PDL1 IC50
Outline: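 Binding of fluorescent PD-L1-Ig (phycoerythrin on Ig tag, 20 nM final, 1 h) measured by high-content imaging of fixed, Hoechst-counterstained Jurkat-hPD-1 cells. Compound added 2 h at 37° C beforehand, in DMEM with 10% fetal calf serum.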

T1 sequence (Q15116 25-288): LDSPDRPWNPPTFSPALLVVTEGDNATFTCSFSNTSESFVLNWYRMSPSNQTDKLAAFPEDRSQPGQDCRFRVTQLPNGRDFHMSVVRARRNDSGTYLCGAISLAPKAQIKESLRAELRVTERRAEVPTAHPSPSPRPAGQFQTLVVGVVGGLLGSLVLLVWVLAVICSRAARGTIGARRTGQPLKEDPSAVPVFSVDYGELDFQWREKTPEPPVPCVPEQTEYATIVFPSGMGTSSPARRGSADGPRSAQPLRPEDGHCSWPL

Row | IC50 [nM] | SMILES
1 | 52.7 | Cc1cccc(C[C@@H]2NC(=O)[C@H](CC(=O)O)NC(=O)[C@H](Cc3ccc(OCC(=O)O)cc3)NC(=O)[C@H](CN)NC(=O)CSC[C@@H](C(=O)N[C@@H](CCCCN)C(=O)N[C@@H](CO)C(=O)NCCCCCCCCCCC(=O)O)NC(=O)[C@H](CCCN)NC(=O)[C@H](C(C)C)NC(=O)[C@H](CC3CCCCC3)NC(=O)[C@H](CCN)NC(=O)[C@@H](CC(C)C)NC(=O)[C@H](CCCN)NC(=O)[C@H](Cc3ccc(O)cc3)NC(=O)[C@H](Cc3ccc(-c4ccccc4)cc3)NC(=O)[C@H](C(C)C)NC2=O)c1 [Compound 3608] ({CH2CO}-[Dap]Y(Carboxymethyl)D[Phe(3-Me)]V[Bip]Y[Orn][dL][Dab][Cha]V[Orn]CKS[Aun]-OH; thioether N-14)
2 | 18.8 | Cc1cccc(C[C@@H]2NC(=O)[C@H](CC(=O)O)NC(=O)[C@H](Cc3ccc(OCC(=O)O)cc3)NC(=O)[C@H](CCN)NC(=O)CSC[C@@H](C(=O)N[C@@H](CCN)C(=O)NCCOCCOCC(=O)NCCCCCCCCCCC(=O)O)NC(=O)[C@H](CCCN)NC(=O)[C@H](C(C)C)NC(=O)[C@H](CC3CCCCC3)NC(=O)[C@H](CCN)NC(=O)[C@@H](CC(C)C)NC(=O)[C@H](CCCN)NC(=O)[C@H](CCCCNC(=O)C(C)(C)C)NC(=O)[C@H](Cc3ccc(-c4ccccc4)cc3)NC(=O)[C@H](CCCCNC(=O)C(C)(C)C)NC2=O)c1 [Compound 3609] ({CH2CO}-[Dab]Y(Carboxymethyl)D[Phe(3-Me)]K(Piv)[Bip]K(Piv)[Orn][dL][Dab][Cha]V[Orn]C[Dab][AEEA][Aun]-OH; thioether N-14)

The remaining lines, values behind:

Row | SMILES | IC50 [nM]
3 | Cc1cccc(C[C@@H]2NC(=O)[C@H](CC(=O)O)NC(=O)[C@H](Cc3ccc(OCC(=O)O)cc3)NC(=O)[C@H](CCN)NC(=O)CSC[C@@H](C(=O)N[C@@H](CCN)C(=O)NCCCCCCCCCCC(=O)O)NC(=O)[C@H](CO)NC(=O)[C@H](C(C)(C)O)NC(=O)[C@H](CC3CCCCC3)NC(=O)[C@H](CCN)NC(=O)[C@@H](CC(C)C)NC(=O)[C@H](CCCN)NC(=O)[C@H](Cc3ccc(O)cc3)NC(=O)[C@H](Cc3ccc(-c4ccccc4)cc3)NC(=O)[C@H](Cc3ccc(C(N)=O)cc3)NC2=O)c1 [Compound 3603] ({CH2CO}-[Dab]Y(Carboxymethyl)D[Phe(3-Me)][Phe(4-CONH2)][Bip]Y[Orn][dL][Dab][Cha][Val(3-OH)]SC[Dab][Aun]-OH; thioether N-14) | 9.2
4 | Cc1cccc(C[C@@H]2NC(=O)[C@H](CC(=O)O)NC(=O)[C@H](Cc3ccc(OCC(=O)O)cc3)NC(=O)[C@H](CCN)NC(=O)CSC[C@@H](C(=O)N[C@@H](CCN)C(=O)NCCCCCCCCCCC(=O)O)NC(=O)[C@H](CO)NC(=O)[C@H](C(C)(C)O)NC(=O)[C@H](CC3CCCCC3)NC(=O)[C@H](CCN)NC(=O)[C@@H](CC(C)C)NC(=O)[C@H](CCCN)NC(=O)[C@H](Cc3ccc(C(N)=O)cc3)NC(=O)[C@H](Cc3ccc(-c4ccccc4)cc3)NC(=O)[C@H](Cc3ccc(OCC(=O)O)cc3)NC2=O)c1 [Compound 3604] ({CH2CO}-[Dab]Y(Carboxymethyl)D[Phe(3-Me)]Y(Carboxymethyl)[Bip][Phe(4-CONH2)][Orn][dL][Dab][Cha][Val(3-OH)]SC[Dab][Aun]-OH; thioether N-14) | 6.8
5 | Cc1cccc(C[C@@H]2NC(=O)[C@H](CC(=O)O)NC(=O)[C@H](Cc3ccc(OCC(=O)O)cc3)NC(=O)[C@H](C(C)O)NC(=O)CSC[C@@H](C(=O)N[C@@H](CCN)C(=O)NCCOCCOCC(=O)NCCCCCCCCCCC(=O)O)NC(=O)[C@H](CCCCN)NC(=O)[C@H](C(C)C)NC(=O)[C@H](CC3CCCCC3)NC(=O)[C@H](CCN)NC(=O)[C@@H](CC(C)C)NC(=O)[C@H](CCCN)NC(=O)[C@H](Cc3ccc(O)cc3)NC(=O)[C@H](Cc3ccc(-c4ccccc4)cc3)NC(=O)[C@H](Cc3ccc(O)cc3)NC2=O)c1 (stereo partly drawn) [Compound 3607] ({CH2CO}-[Thr(3ξ)]Y(Carboxymethyl)D[Phe(3-Me)]Y[Bip]Y[Orn][dL][Dab][Cha]VKC[Dab][AEEA][Aun]-OH; thioether N-14) | 11.8
